In general, IC50 refers to the midpoint of a concentration-inhibition curve. One may read the inhibition as the relative decrease from the control value, in per cent.

The values below come from patent US10975068B2, “6-aminopyridin-3-yl thiazoles as modulators of RORγT” (Janssen Pharmaceutica NV, priority 2016, dated 2021).

For this test, the target named is full-length human RORγt (Homo sapiens (Human), UniProt P51449). Kind of test: RORγt (full-length human) reporter assay, Conditions B or C. It is filed as cell-based. To be noted: for inhibition at 6 µM: read-out: RORγt (FL) Reporter Assay B or C, % inhibition @ 6 μM, Conditions B or C; for RORγt (FL) Reporter Assay B or C, % inhibition (value marked *): marked *: footnote not given; for inhibition at 3 µM: at 3 μM compound concentration, read-out: RORγt (FL) Reporter Assay B or C, % inhibition. The method in brief: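 HEK293T cells transiently co-transfected with GAL4-DBD–full-length human RORγt (nt 142-1635, NM_001001523.1) plus GAL4-firefly and CMV-Renilla luciferase reporters; compounds added 4-6 h post-transfection for 16-20 h in 1.3% FBS, 0.1% DMSO. Firefly signal normalized to DMSO and saturating reference compound, then to Renilla; IC50 from concentration plots.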
Chain of full-length human RORγt (P51449 other isoform, or with tags, fused parts or gaps): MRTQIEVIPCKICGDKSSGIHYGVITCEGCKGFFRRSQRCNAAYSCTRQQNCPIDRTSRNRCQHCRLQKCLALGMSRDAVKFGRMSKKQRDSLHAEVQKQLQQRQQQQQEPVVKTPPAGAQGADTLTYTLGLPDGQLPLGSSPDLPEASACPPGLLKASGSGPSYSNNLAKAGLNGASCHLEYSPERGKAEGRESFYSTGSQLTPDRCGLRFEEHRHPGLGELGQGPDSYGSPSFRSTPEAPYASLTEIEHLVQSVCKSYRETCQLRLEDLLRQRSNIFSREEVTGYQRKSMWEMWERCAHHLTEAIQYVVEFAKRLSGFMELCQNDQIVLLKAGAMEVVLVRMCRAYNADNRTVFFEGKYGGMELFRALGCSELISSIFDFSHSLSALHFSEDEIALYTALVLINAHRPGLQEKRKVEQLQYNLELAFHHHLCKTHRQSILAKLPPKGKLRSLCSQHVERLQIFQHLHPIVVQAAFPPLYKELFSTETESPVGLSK

The mark [1] stands for this setting: Conditions B or C, read-out: RORγt (FL) Reporter Assay B or C, IC50.
Setting [2] is: read-out: RORγt (FL) Reporter Assay B or C, IC50.

Where two headings read alike, the source gives them in different places.

As for `C[C@H]1CCCN1C(=O)c1nc(C(=O)NCC(C)(C)O)sc1-c1cnc(NC2CCCC2)cc1C(F)(F)F` [Example 38, (S)-5-(6-(Cyclopentylamino)-4-(trifluoromethyl)pyridin-3-yl)-N-(2-hydroxy-2-methylpropyl)-4-(2-methylpyrrolidine-1-carbonyl)thiazole-2-carboxamide], the inhibition at 6 µM was 108%. The IC50 under setting [1] is 0.015 µM.
On to `CC[C@H](Nc1cc(C(F)F)c(-c2sc(C(=O)NCC(C)(C)O)nc2C(=O)N2CC(F)(F)C[C@@H]2C)cn1)C(F)(F)F` [Example 90, 4-((S)-4,4-Difluoro-2-methylpyrrolidine-1-carbonyl)-5-(4-(difluoromethyl)-6-(((S)-1,1,1-trifluorobutan-2-yl)amino)pyridin-3-yl)-N-(2-hydroxy-2-methylpropyl)thiazole-2-carboxamide], for which the “RORγt (FL) Reporter Assay B or C, % inhibition (value marked *)” value (from here on “RORγt … % inhibition (value marked *)”) (Conditions B or C) is 86* %. In addition, the half-maximal inhibitory concentration (IC50) under setting [1] worked out at 0.11 µM.
The corresponding values for `CC[C@H](Nc1cc(C(F)(F)F)c(-c2sc(C(=O)NCC(C)(C)O)nc2C(=O)N2CCC[C@@H]2C)cn1)C1CC1` (relative stereo) [Example 128, 5-(6-(((S*)-1-Cyclopropylpropyl)amino)-4-(trifluoromethyl)pyridin-3-yl)-N-(2-hydroxy-2-methylpropyl)-4-((S)-2-methylpyrrolidine-1-carbonyl)thiazole-2-carboxamide] are 107* % and 0.023 µM.
The like results for `C[C@H]1CC(F)(F)CN1C(=O)c1nc(C(=O)NCC(C)(C)O)sc1-c1cnc(NCC(C)(C)C)cc1C(F)F` [Example 115, (S)-4-(4,4-Difluoro-2-methylpyrrolidine-1-carbonyl)-5-(4-(difluoromethyl)-6-(neopentylamino)pyridin-3-yl)-N-(2-hydroxy-2-methylpropyl)thiazole-2-carboxamide] were, in that order, 115* % and 0.028 µM.
In the case of `C[C@H](NC(=O)c1nc(C(=O)N2CCC[C@@H]2C)c(-c2cnc(N[C@@H](C)C(F)(F)F)cc2C(F)F)s1)C(C)(C)O` [Example 199, 5-(4-(Difluoromethyl)-6-(((S)-1,1,1-trifluoropropan-2-yl)amino)pyridine-3-yl)-N—((S)-3-hydroxy-3-methylburan-2-yl)-4-((S)-2-methylpyrrolidine-1-carbonyl)thiazole-2-carboxamide], the “RORγt … % inhibition (value marked *)” value (Conditions B or C) was 94* %. The half-maximal inhibitory concentration (IC50) under setting [1] was 0.12 µM.
Take `CC(C)(O)CNC(=O)c1nc(C(=O)N2C3CCC2CC3)c(-c2cnc(NC3(C)CCC3)cc2C(F)F)s1` [Example 169, 4-((1s,4s)-7-Azabicyclo[2.2[1]heptane-7-carbonyl)-5-(4-(difluoromethyl)-6-((1-methylcyclobutyl)amino)pyridine-3-yl)-N-(2-hydroxy-2-methylpropyl))thiazole-2-carboxamide]: for the setting “Conditions B or C”, the “RORγt … % inhibition (value marked *)” value is given as 94* %. This compound also yielded an IC50 (RORγt (FL) Reporter Assay B or C, IC50 (μM), Conditions B or C) of 0.012 µM.
For the compound `C[C@H](NC(=O)c1nc(C(=O)N2CCC[C@@H]2C)c(-c2cnc(NC(C)(C)C)cc2C(F)(F)F)s1)C(C)(C)O` [Example 336, 5-[6-(tert-Butylamino)-4-(trifluoromethyl)-3-pyridyl]-N-[(1S)-2-hydroxy-1,2-dimethyl-propyl]-4-[(2S)-2-methylpyrrolidine-1-carbonyl]thiazole-2-carboxamide], the inhibition at 3 µM was found to be 108%. For the same compound, the 50% inhibitory concentration (IC50) under setting [2] was determined as 0.0056 µM.
With `C[C@H]1CCCCN1C(=O)c1nc(C(=O)NCC(C)(C)O)sc1-c1cnc(NC2CCCC2)cc1C(F)(F)F` [Example 27, (S)-5-(6-(Cyclopentylamino)-4-(trifluoromethyl)pyridin-3-yl)-N-(2-hydroxy-2-methylpropyl)-4-(2-methylpiperidine-1-carbonyl)thiazole-2-carboxamide], the inhibition at 6 µM stood at 106%. Also, the IC50 under setting [1] amounted to 0.0084 µM.
For the compound `C[C@H]1CCCN1C(=O)c1nc(C(=O)NCc2n[nH]c(=O)o2)sc1-c1cnc(NC(C)(C)C)cc1C(F)(F)F` [Example 305, (S)-5-(6-(tert-Butylamino)-4-(trifluoromethyl)pyridin-3-yl)-4-(2-methylpyrrolidine-1-carbonyl)-N-((5-oxo-4,5-dihydro-1,3,4-oxadiazol-2-yl)methyl)thiazole-2-carboxamide], the inhibition at 3 µM came out at 100%. For the same compound, the 50% inhibitory concentration (IC50) under setting [2] worked out at 0.036 µM.
